Data as given in ChEMBL document CHEMBL3885861, “Open TG-GATES”.

Organism: Rattus norvegicus
Assay: Open TG-GATES - Regimen: Single
Type: toxicity, organism-based, Sprague-Dawley
Set-up: regimen Single, gender Male, age 6 weeks
Settings: in vivo, sc, 2 mg/kg, route subcutaneous injection, dose 2000 ug/Kg, dose level High; for APTT / Bas / Eos / Fbg / Hb / Ht / Lym / MCH / MCHC / MCV / Mono / Neu / PT / Plat / RBC / Ret / WBC: tissue Blood; for KIDNEY_L / KIDNEY_R / KIDNEY_TOTAL: tissue Kidney; for LIVER: tissue Liver; for A/G / ALP / ALT / AST / BUN / CRE / Ca / Cl / DBIL / GLC / IP / K / LDH / Na / PL / RALB / TBIL / TC / TG / TP / gamma-GTP: tissue Plasma

CC(=O)O.N=C(N)NCCC[C@@H](NC(=O)[C@@H]1CCCN1C(=O)[C@@H]1CSSCCC(=O)N[C@@H](Cc2ccc(O)cc2)C(=O)N[C@@H](Cc2ccccc2)C(=O)N[C@@H](CCC(N)=O)C(=O)N[C@@H](CC(N)=O)C(=O)N1)C(=O)NCC(N)=O [DESMOPRESSIN ACETATE]
TERMINAL_BW (3 h): 202.2 g | APTT (3 h): 18 s | Bas (3 h): 0% | Eos (3 h): 1.6% | Fbg (3 h): 237.8 mg/dL | Hb (3 h): 12.9 g/dL | Ht (3 h): 39.6% | Lym (3 h): 64.8% | MCH (3 h): 21.3 pg | MCHC (3 h): 32.6% | MCV (3 h): 65.5 fL | Mono (3 h): 10.6% | Neu (3 h): 22.8% | PT (3 h): 12.3 s | Plat (3 h): 117.4 x10_4/uL | RBC (3 h): 606.2 x10_4/ul | Ret (3 h): 9.2% | WBC (3 h): 85.4 x10_2/uL | KIDNEY_L (3 h): 0.9 g | KIDNEY_R (3 h): 1 g | KIDNEY_TOTAL (3 h): 1.9 g | LIVER (3 h): 9.5 g | A/G (3 h): 2 | ALP (3 h): 1436 IU/L | ALT (3 h): 38.6 IU/L | AST (3 h): 70.8 IU/L | BUN (3 h): 22.6 mg/dL | CRE (3 h): 0.4 mg/dL | Ca (3 h): 11.7 mg/dL | Cl (3 h): 97 meq/L | DBIL (3 h): 0.01 mg/dL | GLC (3 h): 217 mg/dL | IP (3 h): 9.5 mg/dL | K (3 h): 4.6 meq/L | LDH (3 h): 134.8 IU/L | Na (3 h): 130.6 meq/L | PL (3 h): 157.4 mg/dL | RALB (3 h): 4 g/dL | TBIL (3 h): 0.048 mg/dL | TC (3 h): 82.4 mg/dL | TG (3 h): 89 mg/dL | TP (3 h): 5.9 g/dL | gamma-GTP (3 h): 0.8 IU/L | TERMINAL_BW (6 h): 204.1 g | APTT (6 h): 18.4 s | Bas (6 h): 0% | Eos (6 h): 1.2% | Fbg (6 h): 247.9 mg/dL | Hb (6 h): 13.2 g/dL | Ht (6 h): 40% | Lym (6 h): 65.8% | MCH (6 h): 21.8 pg | MCHC (6 h): 33% | MCV (6 h): 66 fL | Mono (6 h): 11.8% | Neu (6 h): 21% | PT (6 h): 12.1 s | Plat (6 h): 120.4 x10_4/uL | RBC (6 h): 606.4 x10_4/ul | Ret (6 h): 10.1% | WBC (6 h): 106 x10_2/uL | KIDNEY_L (6 h): 1 g | KIDNEY_R (6 h): 1 g | KIDNEY_TOTAL (6 h): 2 g | LIVER (6 h): 9.3 g | A/G (6 h): 1.9 | ALP (6 h): 1390.6 IU/L | ALT (6 h): 36 IU/L | AST (6 h): 64 IU/L | BUN (6 h): 31.6 mg/dL | CRE (6 h): 0.4 mg/dL | Ca (6 h): 11.1 mg/dL | Cl (6 h): 96.2 meq/L | DBIL (6 h): 0.016 mg/dL | GLC (6 h): 211.2 mg/dL | IP (6 h): 10.6 mg/dL | K (6 h): 4.5 meq/L | LDH (6 h): 122.2 IU/L | Na (6 h): 131 meq/L | PL (6 h): 157.4 mg/dL | RALB (6 h): 3.9 g/dL | TBIL (6 h): 0.084 mg/dL | TC (6 h): 92.4 mg/dL | TG (6 h): 49.4 mg/dL | TP (6 h): 5.9 g/dL | gamma-GTP (6 h): 1 IU/L | TERMINAL_BW (9 h): 202.3 g | APTT (9 h): 17.8 s | Bas (9 h): 0% | Eos (9 h): 1% | Fbg (9 h): 249 mg/dL | Hb (9 h): 12.8 g/dL | Ht (9 h): 39.2% | Lym (9 h): 74.4% | MCH (9 h): 20.9 pg | MCHC (9 h): 32.7% | MCV (9 h): 63.9 fL | Mono (9 h): 7.4% | Neu (9 h): 17% | PT (9 h): 12.5 s | Plat (9 h): 124.6 x10_4/uL | RBC (9 h): 613.2 x10_4/ul | Ret (9 h): 8.9% | WBC (9 h): 98.6 x10_2/uL | KIDNEY_L (9 h): 1 g | KIDNEY_R (9 h): 1 g | KIDNEY_TOTAL (9 h): 2 g | LIVER (9 h): 8.6 g | A/G (9 h): 2.2 | ALP (9 h): 1194.8 IU/L | ALT (9 h): 29.6 IU/L | AST (9 h): 64.2 IU/L | BUN (9 h): 31.8 mg/dL | CRE (9 h): 0.3 mg/dL | Ca (9 h): 11.1 mg/dL | Cl (9 h): 98.6 meq/L | DBIL (9 h): 0.018 mg/dL | GLC (9 h): 197.4 mg/dL | IP (9 h): 10.7 mg/dL | K (9 h): 4.9 meq/L | LDH (9 h): 129.4 IU/L | Na (9 h): 132.8 meq/L | PL (9 h): 137.6 mg/dL | RALB (9 h): 3.8 g/dL | TBIL (9 h): 0.08 mg/dL | TC (9 h): 77.8 mg/dL | TG (9 h): 40.6 mg/dL | TP (9 h): 5.6 g/dL | gamma-GTP (9 h): 0.4 IU/L | TERMINAL_BW (24 h): 220.4 g | APTT (24 h): 16.2 s | Bas (24 h): 0% | Eos (24 h): 1% | Fbg (24 h): 236.7 mg/dL | Hb (24 h): 12.6 g/dL | Ht (24 h): 38.7% | Lym (24 h): 66.8% | MCH (24 h): 21.1 pg | MCHC (24 h): 32.7% | MCV (24 h): 64.6 fL | Mono (24 h): 10.6% | Neu (24 h): 21.2% | PT (24 h): 12.4 s | Plat (24 h): 121 x10_4/uL | RBC (24 h): 599 x10_4/ul | Ret (24 h): 9.6% | WBC (24 h): 88.8 x10_2/uL | KIDNEY_L (24 h): 1 g | KIDNEY_R (24 h): 1 g | KIDNEY_TOTAL (24 h): 2.1 g | LIVER (24 h): 10.4 g | A/G (24 h): 1.9 | ALP (24 h): 1283.2 IU/L | ALT (24 h): 33.4 IU/L | AST (24 h): 60 IU/L | BUN (24 h): 20 mg/dL | CRE (24 h): 0.3 mg/dL | Ca (24 h): 11.1 mg/dL | Cl (24 h): 103.6 meq/L | DBIL (24 h): 0 mg/dL | GLC (24 h): 195.2 mg/dL | IP (24 h): 8.4 mg/dL | K (24 h): 5.4 meq/L | LDH (24 h): 128.4 IU/L | Na (24 h): 136.4 meq/L | PL (24 h): 150 mg/dL | RALB (24 h): 3.5 g/dL | TBIL (24 h): 0.014 mg/dL | TC (24 h): 81.4 mg/dL | TG (24 h): 110 mg/dL | TP (24 h): 5.3 g/dL | gamma-GTP (24 h): 1.4 IU/L
